# Results taken from the supplement of paper PMC10307832.
# What was measured:
# Assay in all cases: relative viability (nuclei count vs DMSO), 5 days (fraction); higher = more cells survive
# Sulindac + Phenformin = compound: CC1=C(CC(=O)O)c2cc(F)ccc2/C1=C\c1ccc([S+](C)[O-])cc1 [Sulindac] + N=C(N)NC(=N)NCCc1ccccc1 [Phenformin] (partner 250 µM)
# Method in brief: (§1)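 A single step with final 0.05% Triton X-100, 1% formaldehyde and 1 ug/ml Hoechst fixed the cells and stained nuclei 5 days after treatment. Lung cancer cell lines in 1536-well plates had been treated by pin tool the day after seeding with one drug alone or a fixed anchor-drug dose plus five library-drug doses (not always all listed) in √10 steps, and nuclei were counted on 4× images. Relative viability is the ratio of nuclei in treated wells to nuclei in vehicle wells, taken as the median of duplicate plates.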
# Sulindac + OSI-027 = compound: CC1=C(CC(=O)O)c2cc(F)ccc2/C1=C\c1ccc([S+](C)[O-])cc1 [Sulindac] + COc1cccc2cc(-c3nc([C@H]4CC[C@H](C(=O)O)CC4)n4ncnc(N)c34)[nH]c12 [OSI-027] (partner 0.5 µM)
# Method in brief: as §1
# [1] = compound: CN[C@@H]1C[C@H]2O[C@@](C)([C@@H]1OC)n1c3ccccc3c3c4c(c5c6ccccc6n2c5c31)C(=O)NC4 [Staurosporine] + CC(C)C[C@H](NC(=O)[C@H](Cc1ccccc1)NC(=O)c1cnccn1)B(O)O [Bortezomib] (partner 0.002 µM)
# Method in brief: as §1
# [2] = compound: O=c1[nH]cc(F)c(=O)[nH]1 [5-Fluorouracil] + CC(C)C[C@H](NC(=O)[C@H](Cc1ccccc1)NC(=O)c1cnccn1)B(O)O [Bortezomib] (partner 0.002 µM)
# Method in brief: as §1
Cell Line,relative viability (Sulindac + Phenformin; first compound 0.08 µM),relative viability (Sulindac + Phenformin; first compound 0.253 µM),relative viability (Sulindac + Phenformin; first compound 0.8 µM),relative viability (Sulindac + Phenformin; first compound 2.53 µM),relative viability (Sulindac + Phenformin; first compound 8 µM),relative viability (Sulindac + OSI-027; first compound 0.08 µM),relative viability (Sulindac + OSI-027; first compound 0.253 µM),relative viability (Sulindac + OSI-027; first compound 0.8 µM),relative viability (Sulindac + OSI-027; first compound 2.53 µM),relative viability (Sulindac + OSI-027; first compound 8 µM),relative viability ([1]; first compound 0.005 µM),relative viability ([1]; first compound 0.05 µM),relative viability ([1]; first compound 0.1581 µM),relative viability ([1]; first compound 0.5 µM),relative viability ([2]; first compound 0.02 µM),relative viability ([2]; first compound 0.2 µM),relative viability ([2]; first compound 0.6325 µM),relative viability ([2]; first compound 2 µM),relative viability ([1]; first compound 0.01581 µM)
HCC-15,0.54,0.468,0.323,0.491,0.57,0.77,0.716,0.526,0.634,0.667,1.05,0.842,0.376,0.251,1.18,1.03,0.534,0.322,
HCC-44,0.181,0.205,0.186,0.159,0.261,0.463,0.592,,0.519,0.734,0.708,0.169,0.142,0.0976,0.931,0.84,0.601,0.35,0.367
HCC-78,0.792,0.689,0.614,0.763,0.738,0.385,0.395,0.399,0.329,0.381,0.483,0.256,0.404,0.332,0.471,0.546,0.525,0.274,0.388
HCC-366,0.651,0.679,0.587,0.61,0.703,1.33,1.11,0.947,0.836,0.964,1.13,0.208,0.0142,0.0141,1.08,0.946,0.523,0.0524,
HCC-827,0.395,0.367,0.414,0.413,0.426,0.913,0.777,0.573,0.798,0.761,0.942,0.915,0.564,0.582,0.805,1.1,0.733,0.596,0.874
HOP-62,0.785,0.937,,0.746,0.759,0.825,0.976,,0.946,0.91,0.976,0.186,0.0948,0.0922,0.85,0.891,0.859,0.558,0.495
IA-LM,,,,,,,,,,,0.188,0.238,0.131,0.07,0.766,0.327,0.193,0.141,
LC-2-ad,0.513,0.61,0.427,0.516,0.697,0.763,0.986,0.686,0.701,0.776,0.973,0.508,0.0851,0.0564,1.01,0.914,0.598,0.276,0.096
LK-2,0.412,0.421,,,0.529,0.186,0.209,0.201,0.17,0.21,,,,,,,,,
NCI-H358,0.362,0.369,0.221,0.312,0.385,0.941,0.891,0.657,0.727,0.891,,,,,,,,,
NCI-H522,0.709,0.715,0.689,0.688,0.674,0.788,0.777,0.666,0.62,0.645,,,,,,,,,
NCI-H1299,,,,,,,,,,,1.1,0.433,0.255,0.169,1.07,1.05,1.04,0.959,1.03
NCI-H1395,0.427,0.448,0.478,0.44,0.526,0.668,0.72,0.675,0.58,0.77,,,,,,,,,
NCI-H1623,0.561,0.595,0.663,0.632,0.6,0.401,0.427,0.415,0.409,0.421,,,,,,,,,
NCI-H1648,,,,,,0.25,0.242,0.298,0.268,0.265,,,,,,,,,
NCI-H1703,,,,,,,,,,,0.215,0.11,0.157,0.111,0.326,0.36,0.314,0.365,0.165
NCI-H1793,0.404,0.396,0.272,0.372,0.333,0.218,0.359,0.236,0.243,0.258,,,,,,,,,
NCI-H1944,0.209,0.226,0.18,0.203,0.271,0.424,0.43,0.353,0.421,0.412,,,,,,,,,
NCI-H2170,0.471,0.407,0.411,0.384,0.432,0.694,0.72,0.684,0.739,0.756,,,,,,,,,
NCI-H2342,0.647,0.594,0.475,0.546,0.625,0.591,0.578,0.546,0.618,0.694,,,,,,,,,
SK-MES-1,0.798,0.77,0.591,0.662,0.73,0.781,0.823,0.55,0.609,0.631,,,,,,,,,
SW 900,,0.723,,0.563,0.606,,0.566,,0.42,0.555,,,,,,,,,
